# Laboratory results published in ChEMBL document CHEMBL4017512 (J Med Chem, 2017).
# Assays:
# [1] = Cytotoxicity against human HCT116/VM46 cells assessed as reduction in cell viability after 72 hrs by phosphatase assay; format: cell-based; conditions: HCT-116/VM46, 72 h
# [2] = tested on: HCT-116; assay: Antiproliferative activity against human HCT116 cells after 72 hrs by phosphatase assay; format: functional, cell-based; conditions: HCT-116, 72 h
# [3] = tested on: L1210; assay: Antiproliferative activity against mouse L1210 cells after 72 hrs by phosphatase assay; format: functional, cell-based; conditions: L1210, 72 h
SMILES,IC50 [1],IC50 [2],IC50 [3]
CC[C@]1(NC(=O)/C=C/c2ccccn2)C[C@H]2CN(CCc3c([nH]c4ccccc34)[C@@](C(=O)OC)(c3cc4c(cc3OC)N(C)[C@H]3[C@@](O)(C(=O)OC)[C@H](OC(C)=O)[C@]5(CC)C=CCN6CC[C@]43[C@@H]65)C2)C1,25 nM,0.7 nM,0.7 nM
CC[C@]1(NS(=O)(=O)c2cccc3c(N(C)C)cccc23)C[C@H]2CN(CCc3c([nH]c4ccccc34)[C@@](C(=O)OC)(c3cc4c(cc3OC)N(C)[C@H]3[C@@](O)(C(=O)OC)[C@H](OC(C)=O)[C@]5(CC)C=CCN6CC[C@]43[C@@H]65)C2)C1,60 nM,30 nM,30 nM
CC[C@]1(NC(=O)c2ccc3c(c2)OCCO3)C[C@H]2CN(CCc3c([nH]c4ccccc34)[C@@](C(=O)OC)(c3cc4c(cc3OC)N(C)[C@H]3[C@@](O)(C(=O)OC)[C@H](OC(C)=O)[C@]5(CC)C=CCN6CC[C@]43[C@@H]65)C2)C1,5.3 nM,0.5 nM,0.6 nM
CC[C@]1(NC(=O)c2ccc3ccncc3c2)C[C@H]2CN(CCc3c([nH]c4ccccc34)[C@@](C(=O)OC)(c3cc4c(cc3OC)N(C)[C@H]3[C@@](O)(C(=O)OC)[C@H](OC(C)=O)[C@]5(CC)C=CCN6CC[C@]43[C@@H]65)C2)C1,3.7 nM,0.4 nM,0.4 nM
CC[C@]1(NC(=O)C2CCN(C)CC2)C[C@H]2CN(CCc3c([nH]c4ccccc34)[C@@](C(=O)OC)(c3cc4c(cc3OC)N(C)[C@H]3[C@@](O)(C(=O)OC)[C@H](OC(C)=O)[C@]5(CC)C=CCN6CC[C@]43[C@@H]65)C2)C1,6600 nM,4400 nM,5300 nM
CC[C@]1(NC(=O)c2ccc3nccnc3c2)C[C@H]2CN(CCc3c([nH]c4ccccc34)[C@@](C(=O)OC)(c3cc4c(cc3OC)N(C)[C@H]3[C@@](O)(C(=O)OC)[C@H](OC(C)=O)[C@]5(CC)C=CCN6CC[C@]43[C@@H]65)C2)C1,7.5 nM,0.6 nM,0.6 nM
CC[C@]1(NC(=O)c2ccc(Cl)c(Cl)c2)C[C@H]2CN(CCc3c([nH]c4ccccc34)[C@@](C(=O)OC)(c3cc4c(cc3OC)N(C)[C@H]3[C@@](O)(C(=O)OC)[C@H](OC(C)=O)[C@]5(CC)C=CCN6CC[C@]43[C@@H]65)C2)C1,80 nM,8.7 nM,8.5 nM
CC[C@]1(NC(=O)c2ccco2)C[C@H]2CN(CCc3c([nH]c4ccccc34)[C@@](C(=O)OC)(c3cc4c(cc3OC)N(C)[C@H]3[C@@](O)(C(=O)OC)[C@H](OC(C)=O)[C@]5(CC)C=CCN6CC[C@]43[C@@H]65)C2)C1,12 nM,0.7 nM,0.7 nM
CCCCCCCC(=O)N[C@@]1(CC)C[C@H]2CN(CCc3c([nH]c4ccccc34)[C@@](C(=O)OC)(c3cc4c(cc3OC)N(C)[C@H]3[C@@](O)(C(=O)OC)[C@H](OC(C)=O)[C@]5(CC)C=CCN6CC[C@]43[C@@H]65)C2)C1,420 nM,60 nM,50 nM
CC[C@]1(NC(=O)C2CCCCC2)C[C@H]2CN(CCc3c([nH]c4ccccc34)[C@@](C(=O)OC)(c3cc4c(cc3OC)N(C)[C@H]3[C@@](O)(C(=O)OC)[C@H](OC(C)=O)[C@]5(CC)C=CCN6CC[C@]43[C@@H]65)C2)C1,760 nM,70 nM,55 nM
CC[C@]1(NC(=O)C2CCSCC2)C[C@H]2CN(CCc3c([nH]c4ccccc34)[C@@](C(=O)OC)(c3cc4c(cc3OC)N(C)[C@H]3[C@@](O)(C(=O)OC)[C@H](OC(C)=O)[C@]5(CC)C=CCN6CC[C@]43[C@@H]65)C2)C1,5200 nM,450 nM,460 nM
CC[C@]1(NC(=O)c2cscn2)C[C@H]2CN(CCc3c([nH]c4ccccc34)[C@@](C(=O)OC)(c3cc4c(cc3OC)N(C)[C@H]3[C@@](O)(C(=O)OC)[C@H](OC(C)=O)[C@]5(CC)C=CCN6CC[C@]43[C@@H]65)C2)C1,80 nM,6.3 nM,5.6 nM
CC[C@]1(NC(=O)c2cccc(C(F)(F)F)c2)C[C@H]2CN(CCc3c([nH]c4ccccc34)[C@@](C(=O)OC)(c3cc4c(cc3OC)N(C)[C@H]3[C@@](O)(C(=O)OC)[C@H](OC(C)=O)[C@]5(CC)C=CCN6CC[C@]43[C@@H]65)C2)C1,40 nM,6.4 nM,6.2 nM
CC[C@]1(NC(=O)c2cc(Cl)c(OC)c(Cl)c2)C[C@H]2CN(CCc3c([nH]c4ccccc34)[C@@](C(=O)OC)(c3cc4c(cc3OC)N(C)[C@H]3[C@@](O)(C(=O)OC)[C@H](OC(C)=O)[C@]5(CC)C=CCN6CC[C@]43[C@@H]65)C2)C1,25 nM,4.2 nM,3.1 nM
CC[C@]1(NC(=O)c2ccc(CN)cc2)C[C@H]2CN(CCc3c([nH]c4ccccc34)[C@@](C(=O)OC)(c3cc4c(cc3OC)N(C)[C@H]3[C@@](O)(C(=O)OC)[C@H](OC(C)=O)[C@]5(CC)C=CCN6CC[C@]43[C@@H]65)C2)C1,470 nM,3.5 nM,25 nM
CCC(=O)N[C@@]1(CC)C[C@H]2CN(CCc3c([nH]c4ccccc34)[C@@](C(=O)OC)(c3cc4c(cc3OC)N(C)[C@H]3[C@@](O)(C(=O)OC)[C@H](OC(C)=O)[C@]5(CC)C=CCN6CC[C@]43[C@@H]65)C2)C1,2100 nM,60 nM,60 nM
CC[C@]1(NC(=O)C2CCNCC2)C[C@H]2CN(CCc3c([nH]c4ccccc34)[C@@](C(=O)OC)(c3cc4c(cc3OC)N(C)[C@H]3[C@@](O)(C(=O)OC)[C@H](OC(C)=O)[C@]5(CC)C=CCN6CC[C@]43[C@@H]65)C2)C1,> 10000 nM,> 10000 nM,4200 nM
CC[C@]1(NC(=O)c2cccc3ccccc23)C[C@H]2CN(CCc3c([nH]c4ccccc34)[C@@](C(=O)OC)(c3cc4c(cc3OC)N(C)[C@H]3[C@@](O)(C(=O)OC)[C@H](OC(C)=O)[C@]5(CC)C=CCN6CC[C@]43[C@@H]65)C2)C1,220 nM,65 nM,60 nM
CC[C@]1(NC(=O)c2ccc3scnc3c2)C[C@H]2CN(CCc3c([nH]c4ccccc34)[C@@](C(=O)OC)(c3cc4c(cc3OC)N(C)[C@H]3[C@@](O)(C(=O)OC)[C@H](OC(C)=O)[C@]5(CC)C=CCN6CC[C@]43[C@@H]65)C2)C1,25 nM,0.7 nM,0.6 nM
CC[C@]1(NC(=O)c2ccc(NS(C)(=O)=O)cc2)C[C@H]2CN(CCc3c([nH]c4ccccc34)[C@@](C(=O)OC)(c3cc4c(cc3OC)N(C)[C@H]3[C@@](O)(C(=O)OC)[C@H](OC(C)=O)[C@]5(CC)C=CCN6CC[C@]43[C@@H]65)C2)C1,50 nM,0.3 nM,0.4 nM
CC[C@]1(NC(=O)c2ccc(C)c(OC)c2)C[C@H]2CN(CCc3c([nH]c4ccccc34)[C@@](C(=O)OC)(c3cc4c(cc3OC)N(C)[C@H]3[C@@](O)(C(=O)OC)[C@H](OC(C)=O)[C@]5(CC)C=CCN6CC[C@]43[C@@H]65)C2)C1,6.9 nM,3.3 nM,4.2 nM
CCCCCC(=O)N[C@@]1(CC)C[C@H]2CN(CCc3c([nH]c4ccccc34)[C@@](C(=O)OC)(c3cc4c(cc3OC)N(C)[C@H]3[C@@](O)(C(=O)OC)[C@H](OC(C)=O)[C@]5(CC)C=CCN6CC[C@]43[C@@H]65)C2)C1,450 nM,40 nM,55 nM
CC[C@]1(NS(=O)(=O)c2ccc3ccccc3c2)C[C@H]2CN(CCc3c([nH]c4ccccc34)[C@@](C(=O)OC)(c3cc4c(cc3OC)N(C)[C@H]3[C@@](O)(C(=O)OC)[C@H](OC(C)=O)[C@]5(CC)C=CCN6CC[C@]43[C@@H]65)C2)C1,440 nM,60 nM,50 nM
CC[C@]1(NC(=O)c2cccc(N3CCOCC3)c2)C[C@H]2CN(CCc3c([nH]c4ccccc34)[C@@](C(=O)OC)(c3cc4c(cc3OC)N(C)[C@H]3[C@@](O)(C(=O)OC)[C@H](OC(C)=O)[C@]5(CC)C=CCN6CC[C@]43[C@@H]65)C2)C1,30 nM,2.8 nM,4.8 nM
CC[C@]1(NC(=O)c2ccc3ccoc3c2)C[C@H]2CN(CCc3c([nH]c4ccccc34)[C@@](C(=O)OC)(c3cc4c(cc3OC)N(C)[C@H]3[C@@](O)(C(=O)OC)[C@H](OC(C)=O)[C@]5(CC)C=CCN6CC[C@]43[C@@H]65)C2)C1,6.5 nM,2.2 nM,3.3 nM
CC[C@]1(NC(=O)c2ccc(C)c(NC(C)=O)c2)C[C@H]2CN(CCc3c([nH]c4ccccc34)[C@@](C(=O)OC)(c3cc4c(cc3OC)N(C)[C@H]3[C@@](O)(C(=O)OC)[C@H](OC(C)=O)[C@]5(CC)C=CCN6CC[C@]43[C@@H]65)C2)C1,330 nM,4.3 nM,5.4 nM
CC[C@]1(NC(=O)c2ccc(C)c(NC(=O)OC(C)(C)C)c2)C[C@H]2CN(CCc3c([nH]c4ccccc34)[C@@](C(=O)OC)(c3cc4c(cc3OC)N(C)[C@H]3[C@@](O)(C(=O)OC)[C@H](OC(C)=O)[C@]5(CC)C=CCN6CC[C@]43[C@@H]65)C2)C1,90 nM,7.1 nM,6 nM
CC[C@]1(NC(=O)c2ccc3c(c2)C(C)(C)CCC3(C)C)C[C@H]2CN(CCc3c([nH]c4ccccc34)[C@@](C(=O)OC)(c3cc4c(cc3OC)N(C)[C@H]3[C@@](O)(C(=O)OC)[C@H](OC(C)=O)[C@]5(CC)C=CCN6CC[C@]43[C@@H]65)C2)C1,50 nM,7.8 nM,7.4 nM
CC[C@]1(NC(=O)c2ccc(SC)cc2)C[C@H]2CN(CCc3c([nH]c4ccccc34)[C@@](C(=O)OC)(c3cc4c(cc3OC)N(C)[C@H]3[C@@](O)(C(=O)OC)[C@H](OC(C)=O)[C@]5(CC)C=CCN6CC[C@]43[C@@H]65)C2)C1,6.8 nM,0.5 nM,0.4 nM
